Data reported in patent publication US10786459B2, “Twin-screw dry granulation for producing solid formulations” (R. P. Scherer Technologies LLC, priority 2016, dated 2020).
Structures can show the parent of a compound that is named as a salt.

What was measured:
Format in all cases: physicochemical
[1] = Thermogravimetric analysis (TGA) of OND
Procedure: Thermogravimetric analysis (TGA) was used to determine weight loss of OND due to dehydration. A weighed sample of OND was heated from 25° C. to 300° C. at a rate of 20° C./min in a platinum pan under an inert nitrogen atmosphere purge flowing at a rate of 20 ml per minute. Heating caused loss of 2 moles of loosely bound water from each mole of OND dihydrate.

[2] = Dynamic vapor sorption (DVS) of OND; conditions: 25 °C
Procedure: Dynamic vapor sorption (DVS) was then used to measure the weight loss of OND during an isotherm dehydration study. The DVS apparatus (Surface Measurement Systems, London, UK) was a commercially available water sorption apparatus, which allowed an OND sample to be weighed under defined temperature and humidity conditions. About 14 mg of OND was weighed onto an aluminum pan. The DVS apparatus was programmed to run from 0% to 90% relative humidity (RH) at increments of 10% RH and then again going from 90% back to 0% RH at decrements of 10% RH. The study was conducted at 25° C. and in triplicate. The accuracy of the DVS apparatus was ±1.0% for the RH and ±0.2° C. for the temperature.

[3] = Hot-stage microscopy (HSM) of OND; conditions: heated 35 to 150 °C at 2 °C/min in silicone oil
Procedure: Hot-stage microscopy (HSM) was used to capture images at different stages of OND transformation. A glass slide with a sample of a small amount of OND dispersed in silicone oil was inserted into a hot-stage system (FTIR 600, Linkam Scientific Instruments, Surrey, UK). The OND sample was examined while being heated from 35° C. to 150° C. at a constant rate of 2° C./min. A camera-mounted optical microscope (Cary 620 IR, Agilent Technologies, Santa Clara, Calif., USA) equipped with a hot-stage was used to capture images at different stages of the OND transformation.

[4] = DSC/FTIR compatibility and crystallinity of OND (Example 3); conditions: 1:1 ratio
Source text: Differential scanning calorimetry (Diamond DSC, Perkin Elmer Life and Analytical Sciences, 710 Bridgeport Ave., Conn., USA) equipped with Pyris manager software (Shelton, Conn., USA) and Fourier transform infrared spectroscopy (FTIR, Agilent Technologies Cary 660, Santa Clara, Calif.) were used to study the compatibility of OND with various polymeric carriers in 1:1 ratio in a dry granulation process carried out in a twin-screw extruder to provide granules used to produce extended release tablets. Samples were prepared by hermetically sealing approximately 3-5 mg of pure OND or powder mixture in aluminum pans, which were then heated over a temperature range of 40-250° C. at a linear heating rate of 10° C./min under an inert nitrogen atmosphere. An FTIR bench equipped with a […]® attenuated total reflection (Pike Technologies, Madison, Wis.) was used to generate mid-infrared spectra in the range of 4000-650 cm-1, which was fitted with a single bounce diamond coated ZnSe internal reflection element. […] Thus, the crystalline structure of OND was preserved in the granules.

Cc1nccn1CC1CCc2c(c3ccccc3n2C)C1=O (stereo not drawn) [OND, Ondansetron HCl dihydrate]
temperature range of dehydration event (TGA) ([1]; TGA thermogram): 60-105 °C
weight lost (TGA) ([1]; heated from 60-105 °C, 20 °C/min, nitrogen): about 10%
weight gain (DVS) ([2]; RH increased beyond 20% up to 90%): 9.2%
weight gain (DVS) ([2]; RH increased from 0% to 10%): 2.67%
weight gain (DVS) ([2]; RH increased to 20%): 8.9%
weight loss (DVS) ([2]; at 0% RH): 9.5%
weight decrease (DVS) ([2]; desorption, at 10% RH): up to 4.44%
temperature at which crystals started dehydration (HSM) [3]: 90 °C
compatibility of OND with polymeric carriers [4]: compatible
